Laboratory results published in patent publication US20100130737A1, “Regulating Agent of GPR34 Receptor Function” (TAKEDA PHARMACEUTICAL COMPANY LIMITED, priority 2005, published 2010).

Key:
[1] = tested on: rat peritoneal mast cells; experiment: Degranulation inhibiting activity in rat peritoneal mast cells (β-hexosaminidase release); format: cell-based; settings: 10 μM compound; co-stimulation with 3 μM LysoPS and 100 ng/ml DNP-BSA = 100%, spontaneous degranulation = 0%
Protocol: Ice-cooled mast cell medium (hereunder called MCM: 150 mM NaCl, 3.7 mM KCl, 3.0 mM NaH2PO4, 3.5 mM KH2PO4, 5.6 mM (D)-Glucose, 0.1% bovine serum albumin (BSA), 0.1% gelatin, 10 U/ml heparin, pH 6.8) was injected intraperitoneally into rats, about 40 ml per rat, the abdomens were massaged for about 2 minutes and then opened along the median line, and ascites was collected. The collected ascites were filtered with a cell strainer (Becton Dickinson) and centrifuged for 7 minutes at 50×g, and the precipitated cells were suspended in MCM and then centrifuged again for 7 minutes at 50×g. The precipitated cells were suspended in 5 ml of MCM, layered over 2 ml of 32% (w/v) BSA solution (dissolved in 0.9% NaCL), and left for 20 minutes at room temperature. This was centrifuged for 15 minutes at room temperature at 300×g, the cells between the MCM and BSA solution were discarded, and the precipitated cells were suspended in MCM and washed twice by being centrifuged for 5 minutes at 300×g. The precipitated cells were suspended in assay buffer (150 mM NaCl, 3.7 mM KCl, 3.0 mM NaH2PO4, 3.5 mM KH2PO4, 0.9 mM CaCl2, 5.6 mM (D)-Glucose, 0.01% BSA, pH 6.8), and these cells were used in the following test.
RPMC cells suspended in assay buffer were passively sensitized by adding 10 μg/ml of monoclonal mouse anti-DNP-IgE (Seikagaku) and leaving them for 30 minutes on ice. After 5 minutes of centrifugation at 300×g, the precipitated cells were washed 3 times with assay buffer. The RPMC cells suspended in assay buffer were dispensed on 96-well V-bottom plates, 2×10^4 cells per well. The assay was performed with n=3 under each set of reaction conditions. The plates were maintained for 5 minutes at 37° C., the test compound was added, and after 15 minutes lysoPS (Sigma) was added to a final concentration of 3 μM and DNP-BSA (Calbiochem) to a final concentration of 100 ng/ml for a final capacity of 200 and left on a water bath at 37° C. After 20 minutes, the plate was ice cooled to stop RPMC activation, followed by 5 minutes of centrifugation at 300×g, and β-hexosaminidase activity in the supernatant was measured using 4-methylumbelliferyl-2-acetamido-2-deoxy-β-D-glucopyranoside (Wako Pure Chemical) degradation as the indicator.

human GPR34 = human GPR34 (Homo sapiens, UniProt Q9UPC5); experiment: Human GPR34 antagonist activity indicated by changes in intracellular calcium concentration (FLIPR); format: cell-based; design: expressed in transfected cells; host or cells: CHO cells (human GPR34CHO line) stably transfected with pCR3.1 human lung Gα16; settings: CHO cells expressing human GPR34/Gα16, against 2 μM lysoPS final concentration, Fluo-3AM
Protocol: CHO cells expressing human GPR34/Gα were diluted to 3×10^4/100 μl in cell culture medium [nucleic acid-free Minimum Essential Alpha Medium (Invitrogen) containing 10% dialyzed fetal bovine serum (Invitrogen) 0.5 mg/ml Geneticin (Invitrogen), penicillin and streptomycin (Invitrogen)], dispensed 100 μl per well into a Black walled 96-well plate (Costar), and cultured overnight in a CO2 incubator. Changes in intracellular calcium concentration were measured with a FLIPR (Molecular Device) by the methods described below.
50 μg of Fluo-3AM (Dojindo) was dissolved in 21 μl of DMSO (Dojindo), an equal amount of 20% pluronic acid (Molecular Probes) was added and mixed, and this was added to 10.6 ml of assay buffer [prepared by adding 20 ml of 1 M HEPES (pH 7.4, Dojindo) to HBSS (Invitrogen), and then adding 10 ml of a solution obtained by dissolving 710 mg of Probenecid (Sigma) in 5 ml of 1 N NaOH and then adding and mixing 5 ml of the HBSS/HEPES solution)] with 105 μl of fetal bovine serum added thereto to prepare a fluorescent dye solution. The medium was removed from the cell plate, 100 μl per well of the fluorescent dye solution was immediately poured in, and the cells were cultured for 1 hour in a CO2 incubator to incorporate the fluorescent dye into the cells. After culture, the cells were washed with the aforementioned assay buffer. The compound was dissolved in DMSO (Wako Pure Chemical), diluted with DMSO as necessary, added to the aforementioned assay buffer to the target concentration and poured into the plate. To measure antagonist activity, 8 μM lysophosphatidyl serine (lysoPS, Alexis) solution (2 μM final concentration during reaction) was poured into the plate, which was set in the FLIPR. Following these preliminaries, the agonist effect was measured in the FLIPR by measuring changes in intracellular calcium concentration up to 180 seconds after addition of the sample, and after 200 seconds lysoPS was added and the antagonist effect was measured. In the case of the agonist effect, the EC50 value of the added compound was calculated from the dose reaction curve using changes in fluorescent strength from 0 to 180 seconds after the start of the reaction. In the case of the antagonist effect, the IC50 was calculated from the dose reaction curve using changes in maximum fluorescent strength after 200 to 380 seconds of reaction time. The data was analyzed using “GraphPad PRISM4”.

Chain of human GPR34 (Q9UPC5 whole entry): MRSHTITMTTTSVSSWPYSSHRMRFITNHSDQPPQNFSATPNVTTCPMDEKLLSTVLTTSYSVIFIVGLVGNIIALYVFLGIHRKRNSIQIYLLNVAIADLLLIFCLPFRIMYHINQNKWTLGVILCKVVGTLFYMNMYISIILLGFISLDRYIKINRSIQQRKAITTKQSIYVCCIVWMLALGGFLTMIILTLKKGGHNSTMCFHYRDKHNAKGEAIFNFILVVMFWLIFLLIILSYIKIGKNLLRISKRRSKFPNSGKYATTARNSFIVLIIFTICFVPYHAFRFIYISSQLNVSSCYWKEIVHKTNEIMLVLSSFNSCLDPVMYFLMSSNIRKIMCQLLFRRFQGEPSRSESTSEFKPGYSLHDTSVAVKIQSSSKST

Row | melting point | IC50 (human GPR34) [nM] | Structure (SMILES) | degranulation of rat peritoneal mast cells due to LysoPS and DNP-BSA stimulation [1] [%]
1 |  |  | COC(=O)CC(=O)NC1(C(=O)O)Cc2ccc(-c3ccc(Cl)cc3)cc2C1 (stereo not drawn) [Example B13] | 10
2 |  |  | O=C(Cc1ccc(OCc2ccccc2)cc1)NC1(C(=O)O)Cc2ccc(-c3ccc(Cl)cc3)cc2C1 (stereo not drawn) [Example B174, 2-({[4-(Benzyloxy)phenyl]acetyl}amino)-5-(4-chlorophenyl)indan-2-carboxylic acid] | 8
3 | 143 to 144 °C |  | Cc1c(C(=O)N[C@@H](Cc2ccc(OCc3ccccc3)cc2)C(=O)O)oc2cc(-c3ccc(Cl)cc3)ccc12 [Example C115, O-Benzyl-N-{[6-(4-chlorophenyl)-3-methyl-1-benzofuran-2-yl]carbonyl}-L-tyrosine] | 20
4 | 211 to 212 °C | ≤ 1000 | CCCOc1ccc(-c2ccc3sc(C(=O)N[C@@H](Cc4ccc(OCc5ccc(F)cc5)cc4)C(=O)O)cc3c2)cc1 [Example C131, O-(4-Fluorobenzyl)-N-{[5-(4-propoxyphenyl)-1-benzothiophene-2-yl]carbonyl}tyrosine] | 10.2
5 | 189 to 190 °C | ≤ 1000 | O=C(N[C@@H](Cc1ccc(OCc2ccc(F)cc2)cc1)C(=O)O)c1cc2cc(-c3ccc(Cl)cc3)ccc2s1 [Example C133, N-{[5-(4-Chlorophenyl)-1-benzothiophene-2-yl]carbonyl}-O-(4-fluorobenzyl)tyrosine] | 12.4
6 | 228 °C | ≤ 1000 | O=C(N[C@@H](Cc1ccc(OCc2ccccc2)cc1)C(=O)O)c1cn2cc(-c3ccccc3Cl)ccc2n1 [Example E24, O-Benzyl-N-{[6-(2-chlorophenyl)imidazo[1,2-a]pyridin-2-yl]carbonyl}tyrosine] | 
7 | 278 to 280 °C | ≤ 1000 | O=C(N[C@@H](Cc1ccc(OCc2ccccc2)cc1)C(=O)O)c1ccc2nc(-c3ccc(Cl)cc3)cn2c1 [Example E25, O-Benzyl-N-{[2-(4-chlorophenyl)imidazo[1,2-a]pyridin-6-yl]carbonyl}tyrosine] | 
8 | 263 to 264 °C | ≤ 1000 | Cc1c(-c2ccc(Cl)cc2)ccc2nc(C(=O)N[C@@H](Cc3ccc(OCc4ccccc4)cc3)C(=O)O)cn12 [Example E26, O-Benzyl-N-{[6-(4-chlorophenyl)-5-methylimidazo[1,2-a]pyridin-2-yl]carbonyl}tyrosine] | 
9 | 249 to 250 °C | ≤ 1000 | Cc1cc(-c2ccc(Cl)cc2)cn2cc(C(=O)N[C@@H](Cc3ccc(OCc4ccccc4)cc3)C(=O)O)nc12 [Example E27, O-Benzyl-N-{[6-(4-chlorophenyl)-8-methylimidazo[1,2-a]pyridin-2-yl]carbonyl}tyrosine] | 
10 | 210 °C | ≤ 1000 | O=C(N[C@@H](Cc1ccc(OCc2ccccc2)cc1)C(=O)O)c1cn2cccc(OCc3ccc(Cl)cc3)c2n1 [Example E28, O-Benzyl-N-({8-[(4-chlorobenzyl)oxy]imidazo[1,2-a]pyridin-2-yl}carbonyl)tyrosine] | 
11 | 256 to 257 °C | ≤ 1000 | O=C(N[C@@H](Cc1ccc(OCc2ccccc2)cc1)C(=O)O)c1cn2nc(/C=C/c3ccc(Cl)cc3)ccc2n1 [Example E29, O-Benzyl-N-({6-[(E)-2-(4-chlorophenyl)ethenyl]imidazo[1,2-b]pyridazin-2-yl}carbonyl)tyrosine] | 
12 | 242 to 244 °C | ≤ 1000 | O=C(N[C@@H](Cc1ccc(OCc2ccccc2)cc1)C(=O)O)c1nc2ccc(-c3ccc(Cl)cc3)cn2c1Cl [Example E37, O-Benzyl-N-{[3-chloro-6-(4-chlorophenyl)imidazo[1,2-a]pyridin-2-yl]carbonyl}tyrosine] | 
13 | 267 to 270 °C | ≤ 1000 | O=C(N[C@@H](Cc1ccc(OCc2ccccc2)cc1)C(=O)O)c1cn2cc(/C=C/c3ccc(Cl)cc3)ccc2n1 [Example E41, O-Benzyl-N-({6-[(E)-2-(4-chlorophenyl)ethenyl]imidazo[1,2-a]pyridin-2-yl}carbonyl)tyrosine] | 
14 | 266 to 267 °C | ≤ 1000 | Cc1ccc(/C=C/c2ccc3nc(C(=O)N[C@@H](Cc4ccc(OCc5ccccc5)cc4)C(=O)O)cn3c2)cc1 [Example E42, O-Benzyl-N-({6-[(E)-2-(4-methylphenyl)ethenyl]imidazo[1,2-a]pyridin-2-yl}carbonyl) tyrosine] | 
15 | 263 °C (dec.) | ≤ 1000 | CC(C)Oc1ccc(-c2ccc3nc(C(=O)N[C@@H](Cc4ccc(OCc5ccccc5)cc4)C(=O)O)cn3c2)cc1 [Example E45, O-Benzyl-N-{[6-(4-isopropoxyphenyl)imidazo[1,2-a]pyridin-2-yl]carbonyl}tyrosine] | 
16 | 250 to 252 °C | ≤ 1000 | O=C(N[C@@H](Cc1ccc(OCc2ccccc2F)cc1)C(=O)O)c1cn2ccc(-c3ccc(Cl)cc3)cc2n1 [Example E47, N-{[7-(4-Chlorophenyl)imidazo[1,2-a]pyridin-2-yl]carbonyl}-O-(2-fluorobenzyl)tyrosine] | 
17 | 248 to 250 °C | ≤ 1000 | O=C(N[C@@H](Cc1ccc(OCc2cccc(F)c2)cc1)C(=O)O)c1cn2ccc(-c3ccc(Cl)cc3)cc2n1 [Example E48, N-{[7-(4-Chlorophenyl)imidazo[1,2-a]pyridin-2-yl]carbonyl}-O-(3-fluorobenzyl)tyrosine] | 
18 | 255 to 257 °C | ≤ 1000 | O=C(N[C@@H](Cc1ccc(OCc2ccc(F)cc2)cc1)C(=O)O)c1cn2ccc(-c3ccc(Cl)cc3)cc2n1 [Example E49, N-{[7-(4-Chlorophenyl)imidazo[1,2-a]pyridin-2-yl]carbonyl}-O-(4-fluorobenzyl)tyrosine] | 
19 | 178 to 179 °C | ≤ 1000 | O=C(N[C@@H](Cc1ccc(OCc2ccccc2)cc1)C(=O)O)c1cn2nc(SCc3ccccc3)ccc2n1 [Example E54, O-Benzyl-N-{[6-(benzylthio)imidazo[1,2-b]pyridazine-2-yl]carbonyl}tyrosine] | 
20 | 239 °C (dec.) |  | O=C(NC(Cc1ccc(OCc2ccccc2)cc1)C(=O)O)c1cn2cc(CCc3ccccc3)ccc2n1 (stereo not drawn) [Example E57, O-Benzyl-N-{[6-(2-phenethyl)imidazo[1,2-a]pyridin-2-yl]carbonyl}tyrosine] | 8.3
21 | 263 °C | ≤ 1000 | N#Cc1ccc(COc2ccc(C[C@H](NC(=O)c3cn4ccc(-c5ccc(Cl)cc5)cc4n3)C(=O)O)cc2)cc1 [Example E64, N-{[7-(4-Chlorophenyl)imidazo[1,2-a]pyridin-2-yl]carbonyl}-O-(4-cyanobenzyl)tyrosine] | 
